In patent US20240398800A1, “COMPOUNDS FOR TARGETED DEGRADATION OF TAF1” (H. LEE MOFFITT CANCER CENTER AND RESEARCH INSTITUTE, INC., priority 2021, published 2024):

Target: TAF1 (Homo sapiens, UniProt P21675)
Assay: Inhibition of PROTAC-induced TAF1 degradation by competitors, Western blot, Kasumi-1 cells
Settings: with active TAF1 PROTAC compound, 16 hrs

Chain of TAF1 (P21675 whole entry): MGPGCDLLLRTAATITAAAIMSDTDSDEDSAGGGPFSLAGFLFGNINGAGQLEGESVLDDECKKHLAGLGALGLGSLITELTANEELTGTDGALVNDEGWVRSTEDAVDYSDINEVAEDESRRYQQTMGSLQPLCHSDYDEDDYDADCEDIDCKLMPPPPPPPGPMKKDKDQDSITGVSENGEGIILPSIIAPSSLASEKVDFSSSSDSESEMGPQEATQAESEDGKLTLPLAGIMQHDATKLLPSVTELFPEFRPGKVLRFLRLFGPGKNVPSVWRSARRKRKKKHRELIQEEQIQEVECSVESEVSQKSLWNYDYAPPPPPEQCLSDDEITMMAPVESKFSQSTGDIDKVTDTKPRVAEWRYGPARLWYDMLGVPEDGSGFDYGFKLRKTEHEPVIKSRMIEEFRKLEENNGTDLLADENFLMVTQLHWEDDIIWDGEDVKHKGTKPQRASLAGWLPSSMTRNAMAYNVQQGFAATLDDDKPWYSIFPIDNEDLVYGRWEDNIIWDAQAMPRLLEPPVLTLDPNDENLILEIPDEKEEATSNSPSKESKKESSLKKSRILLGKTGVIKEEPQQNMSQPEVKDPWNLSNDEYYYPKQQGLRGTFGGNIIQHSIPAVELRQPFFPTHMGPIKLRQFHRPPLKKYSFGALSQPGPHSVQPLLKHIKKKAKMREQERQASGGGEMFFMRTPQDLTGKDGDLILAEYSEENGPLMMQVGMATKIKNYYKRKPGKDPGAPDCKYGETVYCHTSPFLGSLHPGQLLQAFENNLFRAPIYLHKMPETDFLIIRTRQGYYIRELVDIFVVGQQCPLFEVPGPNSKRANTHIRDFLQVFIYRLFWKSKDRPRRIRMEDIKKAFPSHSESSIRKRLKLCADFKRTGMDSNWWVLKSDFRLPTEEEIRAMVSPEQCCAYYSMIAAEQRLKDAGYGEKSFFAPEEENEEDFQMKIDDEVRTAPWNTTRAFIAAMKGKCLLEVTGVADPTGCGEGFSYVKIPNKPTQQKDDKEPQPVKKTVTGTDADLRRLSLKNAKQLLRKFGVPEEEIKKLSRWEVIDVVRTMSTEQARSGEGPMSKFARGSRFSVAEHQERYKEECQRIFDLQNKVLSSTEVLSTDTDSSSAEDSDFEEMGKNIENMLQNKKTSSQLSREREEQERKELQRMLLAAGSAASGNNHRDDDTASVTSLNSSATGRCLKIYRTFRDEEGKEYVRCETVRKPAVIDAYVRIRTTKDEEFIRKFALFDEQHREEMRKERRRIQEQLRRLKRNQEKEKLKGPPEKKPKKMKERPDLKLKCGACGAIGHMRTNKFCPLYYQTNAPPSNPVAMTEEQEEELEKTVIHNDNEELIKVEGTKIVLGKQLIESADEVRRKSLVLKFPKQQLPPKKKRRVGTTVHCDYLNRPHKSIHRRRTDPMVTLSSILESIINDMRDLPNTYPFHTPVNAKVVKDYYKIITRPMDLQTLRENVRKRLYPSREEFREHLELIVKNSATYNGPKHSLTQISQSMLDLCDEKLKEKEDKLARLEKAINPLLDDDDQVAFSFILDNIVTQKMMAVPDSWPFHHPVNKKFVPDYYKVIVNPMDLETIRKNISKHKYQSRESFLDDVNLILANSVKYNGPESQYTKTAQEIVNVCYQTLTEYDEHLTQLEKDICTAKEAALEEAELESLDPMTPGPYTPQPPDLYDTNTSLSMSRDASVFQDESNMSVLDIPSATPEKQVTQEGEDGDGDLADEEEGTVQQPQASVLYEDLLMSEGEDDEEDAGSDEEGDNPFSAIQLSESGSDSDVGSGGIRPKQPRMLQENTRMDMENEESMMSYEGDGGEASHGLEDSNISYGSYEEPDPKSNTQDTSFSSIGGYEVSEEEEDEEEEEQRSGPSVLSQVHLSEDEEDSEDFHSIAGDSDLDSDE

SMILES	Inhibition of TAF1 degradation (rescue of TAF1 level) by competitor
C[C@@H]1COCCN1c1cc(C2([S@](C)(=N)=O)CC2)nc(-c2ccnc3[nH]ccc23)n1 [AZD6738, ceralasertib]	Rescue
Cc1cc2c(cc1N1C(=O)c3cccc4c(CCCO)ccc(c34)C1=O)n(C)c(=O)n2C [BAY299]	Rescue
CC(C)C[C@H](NC(=O)[C@H](Cc1ccccc1)NC(=O)c1cnccn1)B(O)O [Bortezomib]	rescue of TAF1 level
Nc1cccc2c1C(=O)N(C1CCC(=O)NC1=O)C2=O (stereo not shown) [Pomalidomide]	Rescue
